# Experimental data taken from patent US12337000B2, “Therapeutic modulators of the reverse mode of ATP synthase” (priority 2017, dated 2025).
# How the values were obtained:
# [1] = Human pharmacokinetics of oral almitrine dimesylate; type: in vivo; conditions: 0.6*17, after 200 mg oral dose
# [2] = humans [121]; cited from earlier work
# [3] = cited from earlier work
# [4] = biological target: F1F0 ATP synthesis and hydrolysis (Homo sapiens, UniProt P06576+P25705); conditions: isolated mitochondria, no matter how great the concentration [114]; cited from earlier work
# [5] = 30 year pharmacovigilance survey in France, oral, multi-year use [120]
structure (smiles),measurement,setting,value
C=CCNc1nc(NCC=C)nc(N2CCN(C(c3ccc(F)cc3)c3ccc(F)cc3)CC2)n1 [almitrine],corresponding tissue concentration (assuming uniform),[1],~10 µM
same,volume of distribution (VD),[2],17 L/kg
same,peripheral neuropathy,[3]; [5],"2,304 cases"
same,weight loss,[3]; [5],795 cases
same,share of presenting cases categorised as serious,[3]; [120],< 10%
same,patients with reversible lactic acidosis and hepatic dysfunction,"[3]; intravenous 459±155 mg within 24 hours, 25 patients [127]",30%
same,mean onset of adverse reactions,"[3]; oral, chronic use [120]",11 months
same,maximal decrease in F1F0 ATP synthesis and hydrolysis,[4],~60%
